We go through 26 compounds from patent US20220125771A1, “S[…], ANALOGUES THEREOF, AND METHODS USING SAME” (priority 2019, published 2022).

In the test the test system is HBsAg in HepG2.2.15 cells. In words: HBsAg Assay: inhibition of HBsAg in HepG2.2.15 cells (CLIA immunoassay of supernatant). It is filed as cell-based, hepatitis B virus. The settings on record: supernatant collected at day 6 after exposure of compounds, final DMSO 0.5%. On the procedure:
Inhibition of HBsAg was determined in HepG2.2.15 cells. Cells were maintained in culture medium containing 10% fetal calf serum, […], Glutamine, penicillin/streptomycin. Cells were seeded in 96-well collagen-coated plate at a density of 30,000 cells/well. Serially diluted compounds were added to cells next day at the final DMSO concentration of 0.5%. Cells were incubated with compounds for 2-3 days, after which medium was removed. Fresh medium containing compounds was added to cells for additional 3-4 days. At day 6 after exposure of compounds, supernatant was collected, the HBsAg immunoassay (microplate-based chemiluminescence immunoassay kits, CLIA, Autobio Diagnosics Co., Zhengzhou, China, Catalog #CL0310-2) was used to determine the level of HBsAg according to manufactory instruction. Dose-response curves were generated and the EC50 value (effective concentrations that achieved 50% inhibitory effect) were determined using XLfit software. In addition, cells were seeded at a density of 5,000 cells/well for determination of cell viability in the presence and absence of compounds by using CellTiter-Glo reagent (Promega). Tables 1-3 show EC50 values obtained by the HBsAg assay for selected compounds.

The mark [1] stands for this setting: read-out: sAg EC50, HepG2.2.15 cells.
Where [2] appears, read: Hepatitis B virus, HepG2.2.15, 144 h, read-out: sAg EC50, μM, HepG2.2.15 cells.

Like-named read-outs stand apart in the source and are kept apart here.

`COc1cccc2c1nc1n2CC(C(C)(C)C)c2cc(C(=O)O)c(=O)[nH]c2-1` (single isomer, unassigned) [Example 27, 5-(tert-Butyl)-11-methoxy-2-oxo-1,2,5,6-tetrahydrobenzo[4,5]imidazo[1,2-h][1,7]naphthyridine-3-carboxylic Acid]: under setting [1], the EC50 was 10 µM. Turning to `COCCCN1CCCc2c3c(cc(OC(F)F)c21)-c1[nH]c(=O)c(C(=O)O)cc1C(C(C)(C)C)C3` (centres unmarked) [Example 30, 6-(tert-Butyl)-12-(difluoromethoxy)-1-(3-methoxypropyl)-9-oxo-1,2,3,4,5,6,9,10-octahydroquinolino[7,8-f]quinoline-8-carboxylic Acid], under setting [2], the EC50 was 0.2 µM. On the same count and under the same terms, the figure for `CC(C)(C)C1Cc2c(cc(OC(F)F)c3ncccc23)-c2[nH]c(=O)c(C(=O)O)c(O)c21` (centres unmarked) [Example 29, 6-(tert-Butyl)-12-(difluoromethoxy)-7-hydroxy-9-oxo-5,6,9,10-tetrahydroquinolino[7,8-f]quinoline-8-carboxylic Acid] is 0.001 µM. Take `COc1cccc2c1nc1n2CC(C(C)(C)C)c2cc(C(=O)O)c(=O)[nH]c2-1` (single isomer, unassigned) [Example 28, 5-(tert-Butyl)-11-methoxy-2-oxo-1,2,5,6-tetrahydrobenzo[4,5]imidazo[1,2-h][1,7]naphthyridine-3-carboxylic Acid]: the EC50 under setting [1] came out at 0.093 µM.

With `CC(C)(C)C1Cc2c(nc3c(OC(F)F)cccn23)-c2[nH]c(=O)c(C(=O)O)cc21` (single isomer, unassigned) [Example 10, 5-(tert-Butyl)-11-(difluoromethoxy)-2-oxo-1,2,5,6-tetrahydropyrido[2′,1′:2,3]imidazo[4,5-h]quinoline-3-carboxylic Acid], under setting [1], the EC50 came to 0.003 µM.

For `COc1cccn2c3c(nc12)-c1[nH]c(=O)c(C(=O)O)cc1C(C(C)C)C3` (single isomer, unassigned) [Example 16, 5-Isopropyl-11-methoxy-2-oxo-1,2,5,6-tetrahydropyrido[2′,1′:2,3]imidazo[4,5-h]quinoline-3-carboxylic Acid], the EC50 under setting [1] was 0.048 µM. Regarding `CC(C)(C)C1Cc2c(cc(OC(F)F)c3ncccc23)-c2[nH]c(=O)c(C(=O)O)cc21` (single isomer, unassigned) [Example 37, 6-(tert-Butyl)-12-(difluoromethoxy)-9-oxo-5,6,9,10-tetrahydroquinolino[7,8-f]quinoline-8-carboxylic Acid], the EC50 under setting [1] was 0.003 µM.

As to `COc1nc2c(c3ccccc13)CC(C(C)(C)C)c1cc(C(=O)O)c(=O)[nH]c1-2` (single isomer, unassigned) [Example 41, 12-(tert-Butyl)-6-methoxy-3-oxo-3,4,11,12-tetrahydrobenzo[c][1,10]phenanthroline-2-carboxylic Acid], under setting [1], the EC50 was 0.001 µM.

Regarding `COc1cc2c(c3cccnc13)CC(C(C)(C)C)c1cc(C(=O)O)c(=O)[nH]c1-2` (single isomer, unassigned) [Example 36, 6-(tert-Butyl)-12-methoxy-9-oxo-5,6,9,10-tetrahydroquinolino[7,8-f]quinoline-8-carboxylic Acid], the EC50 under setting [1] was 5.2 µM. `CC(C)C1Cc2cc(C(=O)O)c(=O)[nH]c2-c2nc3c(OC(F)F)cccn3c21` (single isomer, unassigned) [Example 20, 11-(Difluoromethoxy)-6-isopropyl-2-oxo-1,2,5,6-tetrahydropyrido[2′,1′:2,3]imidazo[4,5-h]quinoline-3-carboxylic Acid]: the EC50 under setting [1] is 0.099 µM.

For the compound `CC(C)(C)C1Cc2c(nc3c(OC(F)F)cccn23)-c2[nH]c(=O)c(C(=O)O)c(O)c21` (single isomer, unassigned) [Example 8, 5-(tert-Butyl)-11-(difluoromethoxy)-4-hydroxy-2-oxo-1,2,5,6-tetrahydropyrido[2′,1′:2,3]imidazo[4,5-h]quinoline-3-carboxylic Acid], the half-maximal effective concentration (EC50) under setting [1] worked out at 0.22 µM. `CC(C)(C)C1Cn2c(nc3c(OC(F)F)cccc32)-c2[nH]c(=O)c(C(=O)O)cc21` (centres unmarked) [Example 26, 5-(tert-Butyl)-11-(difluoromethoxy)-2-oxo-1,2,5,6-tetrahydrobenzo[4,5]imidazo[1,2-h][1,7]naphthyridine-3-carboxylic Acid]: under setting [2], the EC50 came to 0.057 µM. With `CC(C)(C)C1Cn2c(cc3c(OC(F)F)cccc32)-c2[nH]c(=O)c(C(=O)O)c(O)c21` (centres unmarked) [Example 1, 5-(tert-Butyl)-11-(difluoromethoxy)-4-hydroxy-2-oxo-1,2,5,6-tetrahydroindolo[1,2-h][1,7]naphthyridine-3-carboxylic Acid], the EC50 under setting [2] was found to be 0.009 µM.

On to `COc1cccc2c1cc1n2CC(C(C)(C)C)c2c-1[nH]c(=O)c(C(=O)O)c2O` (centres unmarked) [Example 4, 5-(tert-Butyl)-4-hydroxy-11-methoxy-2-oxo-1,2,5,6-tetrahydroindolo[1,2-h][1,7]naphthyridine-3-carboxylic Acid], for which the EC50 under setting [2] was 0.13 µM. Still for that read-out and setting: the same measure for `COc1[nH]c2c(c(=O)c1C(=O)O)C(C(C)(C)C)Cc1c-2cc(OC(F)F)c2ncccc12` (centres unmarked) [Example 47, 6-(tert-butyl)-12-(difluoromethoxy)-9-methoxy-7-oxo-5,6,7,10-tetrahydroquinolino[7,8-f]quinoline-8-carboxylic Acid]: 0.14 µM. As for `COc1cccn2c3c(nc12)-c1[nH]c(=O)c(C(=O)O)cc1C(C(C)C)C3` (single isomer, unassigned) [Example 17, 5-Isopropyl-11-methoxy-2-oxo-1,2,5,6-tetrahydropyrido[2′,1′:2,3]imidazo[4,5-h]quinoline-3-carboxylic Acid], the EC50 under setting [1] turned out to be 10 µM. For the compound `COc1c(C(=O)O)c(=O)c2c(n1C)-c1cc(OC(F)F)c3ncccc3c1CC2C(C)(C)C` (centres unmarked) [Example 46, 6-(tert-Butyl)-12-(difluoromethoxy)-9-methoxy-10-methyl-7-oxo-5,6,7,10-tetrahydroquinolino[7,8-f]quinoline-8-carboxylic Acid], under setting [2], the EC50 came out at 0.3 µM. Regarding `COc1ccn2c3c(nc2c1OC)-c1c(cc(C(=O)O)c(=O)n1C)C(C(C)(C)C)C3` (single isomer, unassigned) [Example 23, 5-(tert-butyl)-10,11-dimethoxy-1-methyl-2-oxo-1,2,5,6-tetrahydropyrido[2′,1′:2,3]imidazo[4,5-h]quinoline-3-carboxylic Acid], under setting [1], the EC50 was 0.011 µM. As for `COc1cc2c(c3cccnc13)CC(C(C)(C)C)c1cc(C(=O)O)c(=O)[nH]c1-2` (single isomer, unassigned) [Example 35, 6-(tert-Butyl)-12-methoxy-9-oxo-5,6,9,10-tetrahydroquinolino[7,8-f]quinoline-8-carboxylic Acid], the EC50 under setting [1] is 0.027 µM. Still for that read-out and setting: the same measure for `CN1CCCc2c3c(cc(OC(F)F)c21)-c1[nH]c(=O)c(C(=O)O)cc1C(C(C)(C)C)C3` (single isomer, unassigned) [Example 32, 6-(tert-Butyl)-12-(difluoromethoxy)-1-methyl-9-oxo-1,2,3,4,5,6,9,10-octahydroquinolino[7,8-f]quinoline-8-carboxylic Acid]: 0.002 µM. Same read-out and setting: the same measure for `CC(C)(C)C1Cn2c(cc3c(OC(F)F)cccc32)-c2[nH]c(=O)c(C(=O)O)c(O)c21` (single isomer, unassigned) [Example 2, 5-(tert-Butyl)-11-(difluoromethoxy)-4-hydroxy-2-oxo-1,2,5,6-tetrahydroindolo[1,2-h][1,7]naphthyridine-3-carboxylic Acid]: 1 µM; for `COc1ccn2c3c(nc2c1OC)-c1[nH]c(=O)c(C(=O)O)cc1C(C(C)(C)C)C3` (single isomer, unassigned) [Example 19, 5-(tert-Butyl)-10,11-dimethoxy-2-oxo-1,2,5,6-tetrahydropyrido[2′,1′:2,3]imidazo[4,5-h]quinoline-3-carboxylic Acid]: 8 µM. Same read-out and setting: the same measure for `CC(C)(C)C1Cc2c(nc3c(OC(F)F)cccn23)-c2[nH]c(=O)c(C(=O)O)c(O)c21` (single isomer, unassigned) [Example 7, 5-(tert-Butyl)-11-(difluoromethoxy)-4-hydroxy-2-oxo-1,2,5,6-tetrahydropyrido[2′,1′:2,3]imidazo[4,5-h]quinoline-3-carboxylic Acid]: 0.002 µM; for `Cn1c2c(cc(C(=O)O)c1=O)C(C(C)(C)C)Cc1c-2cc(OC(F)F)c2ncccc12` (single isomer, unassigned) [Example 39, 6-(tert-Butyl)-12-(difluoromethoxy)-10-methyl-9-oxo-5,6,9,10-tetrahydroquinolino[7,8-f]quinoline-8-carboxylic Acid]: 10 µM.

In the case of `CCOc1cccc2c1cc1n2CC(C(C)(C)C)c2c-1[nH]c(=O)c(C(=O)O)c2O` (centres unmarked) [Example 5, 5-(tert-Butyl)-11-ethoxy-4-hydroxy-2-oxo-1,2,5,6-tetrahydroindolo[1,2-h]naphthyridine-3-carboxylic Acid], the EC50 under setting [2] turned out to be 0.13 µM. As to `CC(C)C1Cc2cc(C(=O)O)c(=O)[nH]c2-c2nc3c(OC(F)F)cccn3c21` (single isomer, unassigned) [Example 21, 11-(Difluoromethoxy)-6-isopropyl-2-oxo-1,2,5,6-tetrahydropyrido[2′,1′:2,3]imidazo[4,5-h]quinoline-3-carboxylic Acid], the EC50 under setting [1] was found to be 6 µM.

Usually EC50 stands for the concentration giving half of the maximal effect.
